Target: T1, p53 Y220C (Homo sapiens, UniProt P04637, Y220C)
T1 construct: The recombinant protein was a truncation mutant containing only amino acids 94-312 of p53; made in house; host or cells: E. coli
Assay: In vitro DNA binding activity assay (HTRF / TR-FRET): stabilization of p53 Y220C and increase of its DNA binding activity
Assay type: biochemical
Settings: recombinant His-tagged p53 Y220C DNA binding domain (aa 94-312), biotin-labeled consensus DNA, incubated at 27° C. or 29° C. for 60 min
Procedure, shortened: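 Test compounds, diluted 3-fold in DMSO from 4.5 mM stocks, were incubated with bacterially expressed His-tagged p53 Y220C at room temperature for 15 min, and after a further step for 20 min. DNA binding was detected by time-resolved FRET between APC and europium labels. SC150 marks the concentration increasing binding by 50%.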

T1 sequence (P04637 94-312, change not shown): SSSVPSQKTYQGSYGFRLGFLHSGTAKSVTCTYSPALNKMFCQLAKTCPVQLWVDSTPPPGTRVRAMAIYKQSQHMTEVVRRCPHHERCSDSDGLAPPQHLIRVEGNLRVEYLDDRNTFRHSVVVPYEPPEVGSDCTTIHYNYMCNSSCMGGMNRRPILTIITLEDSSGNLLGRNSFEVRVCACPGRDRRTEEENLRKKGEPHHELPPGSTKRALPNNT

SC150 (concentration of the compound required to increase the DNA binding activity by 50%)	SMILES
+ (+ = 0 μM ≤ SC150 < 0.05 μM)	COc1cc(C(C)(C)C#N)ncc1NCC#Cc1cc2c(NC3CCS(=O)(=O)CC3)cccc2n1CC(F)(F)F [Compound 1034A, 2-{5-[(3-{4-[(1,1-dioxo-1λ^6-thian-4-yl)amino]-1-(2,2,2-trifluoroethyl)-1H-indol-2-yl}prop-2-yn-1-yl)amino]-4-methoxypyridin-2-yl}-2-methylpropanenitrile]
+ (+ = 0 μM ≤ SC150 < 0.05 μM)	COCC(CN1CCC(Nc2cccc3c2cc(C#CCNc2ccc(S(C)(=O)=O)cc2OC)n3CC(F)(F)F)CC1)OC (stereo not shown) [Compound 580A, N-[1-(2,3-dimethoxypropyl)piperidin-4-yl]-2-{3-[(4-methanesulfonyl-2-methoxyphenyl)amino]prop-1-yn-1-yl}-1-(2,2,2-trifluoroethyl)-1H-indol-4-amine]
+ (+ = 0 μM ≤ SC150 < 0.05 μM)	COc1cc(S(C)(=O)=O)ccc1NCC#Cc1cc2c(N[C@H]3CN(C)CC[C@H]3O)cccc2n1CC(F)(F)F (racemic) [Compound 766A, rac-(3R,4S)-3-[(2-{3-[(4-methanesulfonyl-2-methoxyphenyl)amino]prop-1-yn-1-yl}-1-(2,2,2-trifluoroethyl)-1H-indol-4-yl)amino]-1-methylpiperidin-4-ol]
++++ (++++ = 0.2 μM ≤ SC150 < 1 μM)	COc1cc(S(C)(=O)=O)cc(F)c1NCC#Cc1cc2c(NC3CCN(C)CC3)cccc2n1CC(F)(F)F [Compound 519A]
++++ (++++ = 0.2 μM ≤ SC150 < 1 μM)	COc1cc(S(C)(=O)=O)ccc1NCC#Cc1cc2c(NC(=O)Nc3ccncc3)cccc2n1CC(F)(F)F [Compound 11A, 1-(2-(3-((2-methoxy-4-(methylsulfonyl)phenyl)amino)prop-1-yn-1-yl)-1-(2,2,2-trifluoroethyl)-1H-indol-4-yl)-3-(pyridin-4-yl)urea]

Further lines, the molecule ahead of its results:

SMILES	SC150 (concentration of the compound required to increase the DNA binding activity by 50%)
COc1cc(-c2ccncc2)ccc1NCC#Cc1cc2c(NC3CCN(C)CC3)cccc2n1CC(F)(F)F [Compound 504A, 2-(3-{[2-methoxy-4-(pyridin-4-yl)phenyl]amino}prop-1-yn-1-yl)-N-(1-methylpiperidin-4-yl)-1-(2,2,2-trifluoroethyl)-1H-indol-4-amine]	+ (+ = 0 μM ≤ SC150 < 0.05 μM)
COc1cc(S(C)(=O)=O)ccc1NCC#Cc1cc2c(N[C@H]3CCN(C)C[C@H]3F)cccc2n1CC(F)(F)F (stereo in doubt) [Compound 773A, N-[(3R,4S)-3-fluoro-1-methylpiperidin-4-yl]-2-{3-[(4-methanesulfonyl-2-methoxyphenyl)amino]prop-1-yn-1-yl}-1-(2,2,2-trifluoroethyl)-1H-indol-4-amine]	+ (+ = 0 μM ≤ SC150 < 0.05 μM)
COc1cc(C(=O)O)ccc1NCC#Cc1cc2c(N[C@@H]3CCN(C[C@H](C)O)C[C@@H]3F)cccc2n1CC(F)(F)F (single isomer, unassigned) [Compound 921A]	+ (+ = 0 μM ≤ SC150 < 0.05 μM)
COc1cc(S(C)(=O)=O)ccc1NCC#Cc1cc2c(NC3CCN(C[C@H]4COC(=O)O4)CC3)cccc2n1CC(F)(F)F [Compound 578A, (4S)-4-({4-[(2-{3-[(4-methanesulfonyl-2-methoxyphenyl)amino]prop-1-yn-1-yl}-1-(2,2,2-trifluoroethyl)-1H-indol-4-yl)amino]pipendin-1-yl}methyl)-1,3-dioxolan-2-one]	+ (+ = 0 μM ≤ SC150 < 0.05 μM)
CNC(=O)c1cc(OC)c(NCC#Cc2cc3c(N[C@H]4CC[C@H](N5CC6(COC6)C5)CC4)cccc3n2CC(F)(F)F)cc1F [Compound 275A, 2-fluoro-5-methoxy-N-methyl-4-{[3-(4-{[(1R,4R)-4-{2-oxa-6-azaspiro[3.3]heptan-6-yl}cyclohexyl]amino}-1-(2,2,2-trifluoroethyl)-1H-indol-2-yl)prop-2-yn-1-yl]amino}benzamide]	+ (+ = 0 μM ≤ SC150 < 0.05 μM)
